How the values were obtained:
[1] = system: primary human fibroblasts derived from IPF patients (LL29 cells), α-smooth muscle actin (αSMA); test: Inhibition of the fibrotic process: TGF-β1-treated primary human fibroblasts from IPF patients, αSMA staining; format: cell-based; conditions: Fibroblast, 96 h, 4 days; for EC50: LL29 fibroblasts from IPF patients, TGF-β1 20 ng/mL, inhibition of fibrotic process; for inhibition at 10 µM: LL29 fibroblasts, TGF-β1 treated, read-out: percent inhibition at 10 μM (given for EC50 of >10 μM)
In short: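 Read-out: fraction of αSMA-positive cells by high-content imaging, SYTOX-stained dead cells excluded, normalized to TGF-β1/DMSO wells. Cells got compound (10 μM–[…], 11 points) plus TGF-β1 20 ng/mL for 4 days. EC50 from triplicate curves; above 10 μM, % inhibition at 10 μM given.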

IL-6 (THP-1 cells) = test: Inhibition of IL-6 in LPS-stimulated THP-1 monocytes (HTRF); format: cell-based; conditions: Homo sapiens; for EC50: LPS 500 ng/mL, IL-6 by HTRF; for inhibition at 10 µM: LPS stimulated, IL-6, at 10 μM, read-out: percent inhibition at 10 μM (given for EC50 of >10 μM)
In short: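 IL-6 release was read as the HTRF 665/620 nm ratio after 22 h of 500 ng/mL LPS at 37 °C. Before stimulation, THP-1 cells kept 24 h in 1% FBS were exposed 2 h to a 10-point 1:3 compound series starting at 10 μM, in 0.1% DMSO. Four-parameter EC50s came from DMSO-normalized duplicates, with % inhibition at 10 μM reported beyond 10 μM.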

EC50 (IL-6 (THP-1 cells)) [nM] | SMILES | EC50 [1] [nM] | inhibition at 10 µM (IL-6 (THP-1 cells)) [%] | inhibition at 10 µM [1] [%]
5050 | CC(C)CC(=O)Nc1cncc(-c2ccc3[nH]nc(-c4nc5c(-c6ccc(Cl)s6)ccnc5[nH]4)c3n2)c1 [Compound 1037, N-(5-(3-(7-(5-chlorothiophen-2-yl)-3H-imidazo[4,5-b]pyridin-2-yl)-1H-pyrazolo [4,3-b]pyridin-5-yl)pyridin-3-yl)-3-methylbutanamide] | 511 | – | –
> 10000 | Fc1ccc(-c2ccnc3[nH]c(-c4n[nH]c5ccc(-c6cncc(CN7CCCC7)c6)nc45)nc23)cc1 [Compound 42, 3-(7-(4-fluorophenyl)-3H-imidazo[4,5-b]pyridin-2-yl)-5-(5-(pyrrolidin-1-ylmethyl)pyridin-3-yl)-1H-pyrazolo[4,3-b]pyridine] | 1850 | 46.1 | –
> 10000 | O=C(Nc1cncc(-c2ccc3[nH]nc(-c4nc5c(-c6ccc(F)cc6)ccnc5[nH]4)c3n2)c1)C1CCC1 [Compound 49, N-(5-(3-(7-(4-fluorophenyl)-3H-imidazo[4,5-b]pyridin-2-yl)-1H-pyrazolo [4,3-b]pyridin-5-yl)pyridin-3-yl)cyclobutanecarboxamide] | 1370 | 44 | –
> 10000 | COc1cccc(-c2ccnc3[nH]c(-c4n[nH]c5ccc(-c6cncc(NC(=O)CC(C)(C)C)c6)nc45)nc23)c1 [Compound 1006, N-(5-(3-(7-(3-methoxyphenyl)-3H-imidazo[4,5-b]pyridin-2-yl)-1H-pyrazolo[4,3-b]pyridin-5-yl)pyridin-3-yl)-3,3-dimethylbutanamide] | 2490 | 32.7 | –
161 | Cc1ccc(-c2ccnc3[nH]c(-c4n[nH]c5ccc(-c6cncc(NC(=O)C(C)C)c6)nc45)nc23)s1 [Compound 401, N-(5-(3-(7-(5-methylthiophen-2-yl)-3H-imidazo[4,5-b]pyridin-2-yl)-1H-pyrazolo[4,3-b]pyridin-5-yl)pyridin-3-yl)isobutyramide] | 158 | – | –
5540 | CN(C)CCOc1cncc(-c2ccc3[nH]nc(-c4nc5c(-c6cccc(F)c6)ccnc5[nH]4)c3n2)c1 [Compound 515, 2-((5-(3-(7-(3-fluorophenyl)-3H-imidazo[4,5-b]pyridin-2-yl)-1H-pyrazolo[4,3-b]pyridin-5-yl)pyridin-3-yl)oxy)-N,N-dimethylethan-1-amine] | 2610 | – | –
> 10000 | Fc1ccccc1-c1ccnc2[nH]c(-c3n[nH]c4ccc(-c5ccccn5)nc34)nc12 [Compound 84, 3-(7-(2-Fluorophenyl)-3H-imidazo[4,5-b]pyridin-2-yl)-5-(pyridin-2-yl)-1H-pyrazolo[4,3-b]pyridine] | > 10000 | 23 | 29.4
> 10000 | O=C(Nc1cncc(-c2ccc3[nH]nc(-c4nc5c(N6CCCCC6)ccnc5[nH]4)c3n2)c1)C1CC1 [Compound 188, N-(5-(3-(7-(Piperidin-1-yl)-3H-imidazo[4,5-b]pyridin-2-yl)-1H-pyrazolo [4,3-b]pyridin-5-yl)pyridin-3-yl)cyclopropanecarboxamide] | > 10000 | 28 | 0
23 | NC1CN(c2cncc(-c3ccc4[nH]nc(-c5nc6c(-c7cccc(F)c7)ccnc6[nH]5)c4n3)n2)C1 [Compound 510, 1-(6-(3-(7-(3-fluorophenyl)-3H-imidazo[4,5-b]pyridin-2-yl)-1H-pyrazolo[4,3-b]pyridin-5-yl)pyrazin-2-yl)azetidin-3-amine] | > 10000 | – | 0
> 10000 | CCNCc1cncc(-c2ccc3[nH]nc(-c4nc5c(-c6ccoc6)ccnc5[nH]4)c3n2)c1 [Compound 314, N-((5-(3-(7-(furan-3-yl)-3H-imidazo[4,5-b]pyridin-2-yl)-1H-pyrazolo[4,3-b]pyridin-5-yl)pyridin-3-yl)methyl)ethanamine] | > 10000 | 23.9 | 0
7500 | CN(C)c1cncc(-c2ccc3[nH]nc(-c4nc5c(-c6cccc(F)c6)ccnc5[nH]4)c3n2)c1 [Compound 7, 5-(3-(7-(3-fluorophenyl)-3H-imidazo[4,5-b]pyridin-2-yl)-1H-pyrazolo[4,3-b]pyridin-5-yl)-N,N-dimethylpyridin-3-amine] | 2170 | – | –
296 | CC(C)CC(=O)Nc1cncc(-c2ccc3[nH]nc(-c4nc5c(-c6cccc(F)c6)ccnc5[nH]4)c3n2)c1 [Compound 2, N-(5-(3-(7-(3-fluorophenyl)-3H-imidazo[4,5-b]pyridin-2-yl)-1H-pyrazolo [4,3-b]pyridin-5-yl)pyridin-3-yl)-3-methylbutanamide] | 292 | – | –
1030 | Cc1ccncc1-c1ccc2[nH]nc(-c3nc4c(-c5cc(F)cc(CNS(C)(=O)=O)c5)ccnc4[nH]3)c2n1 [Compound 481, N-(3-fluoro-5-(2-(5-(4-methylpyridin-3-yl)-1H-pyrazolo[4,3-b]pyridin-3-yl)-3H-imidazo[4,5-b]pyridin-7-yl)benzyl)methanesulfonamide] | 5180 | – | –
> 10000 | Clc1ccc(-c2ccnc3[nH]c(-c4n[nH]c5ccc(-c6cncc(CN7CCCC7)c6)nc45)nc23)s1 [Compound 1049, 3-(7-(5-chlorothiophen-2-yl)-3H-imidazo[4,5-b]pyridin-2-yl)-5-(5-(pyrrolidin-1-ylmethyl)pyridin-3-yl)-1H-pyrazolo[4,3-b]pyridine] | 681 | 36.2 | –
5930 | CN(C)Cc1cncc(-c2ccc3[nH]nc(-c4nc5c(-c6cccc(F)c6)ccnc5[nH]4)c3n2)c1 [Compound 13, 1-(5-(3-(7-(3-fluorophenyl)-3H-imidazo[4,5-b]pyridin-2-yl)-1H-pyrazolo [4,3-b]pyridin-5-yl)pyridin-3-yl)-N,N-dimethylmethanamine] | 1440 | – | –
4780 | CN(C)Cc1cncc(-c2ccc3[nH]nc(-c4nc5c(-c6cccs6)ccnc5[nH]4)c3n2)c1 [Compound 349, N,N-dimethyl-1-(5-(3-(7-(thiophen-2-yl)-3H-imidazo[4,5-b]pyridin-2-yl)-1H-pyrazolo[4,3-b]pyridin-5-yl)pyridin-3-yl)methanamine] | 1420 | – | –
> 10000 | CN(C)CC(=O)Nc1cncc(-c2ccc3[nH]nc(-c4nc5c(-c6cccc(F)c6)ccnc5[nH]4)c3n2)c1 [Compound 969, 2-(dimethylamino)-N-(5-(3-(7-(3-fluorophenyl)-3H-imidazo[4,5-b]pyridin-2-yl)-1H-pyrazolo[4,3-b]pyridin-5-yl)pyridin-3-yl)acetamide] | 4930 | 26.3 | –
> 10000 | Cc1ncc(-c2ccc3[nH]nc(-c4nc5c(-c6cccc(F)c6)ccnc5[nH]4)c3n2)n1C [Compound 509, 5-(1,2-dimethyl-1H-imidazol-5-yl)-3-(7-(3-fluorophenyl)-3H-imidazo[4,5-b]pyridin-2-yl)-1H-pyrazolo[4,3-b]pyridine] | > 10000 | 17.5 | 0
250 | Cc1ccc(-c2ccnc3[nH]c(-c4n[nH]c5ccc(-c6cncc(N)c6)nc45)nc23)s1 [Compound 395, 5-(3-(7-(5-methylthiophen-2-yl)-3H-imidazo[4,5-b]pyridin-2-yl)-1H-pyrazolo[4,3-b]pyridin-5-yl)pyridin-3-amine] | 97 | – | –
1330 | FC1(F)CCN(Cc2cncc(-c3ccc4[nH]nc(-c5nc6c(-c7ccsc7)ccnc6[nH]5)c4n3)c2)C1 [Compound 306, 5-(5-((3,3-difluoropyrrolidin-1-yl)methyl)pyridin-3-yl)-3-(7-(thiophen-3-yl)-3H-imidazo[4,5-b]pyridin-2-yl)-1H-pyrazolo[4,3-b]pyridine] | 165 | – | –
> 10000 | COc1cccc(-c2ccnc3[nH]c(-c4n[nH]c5ccc(-c6cncc(NC(=O)Cc7ccccc7)c6)nc45)nc23)c1 [Compound 1000, N-(5-(3-(7-(3-methoxyphenyl)-3H-imidazo[4,5-b]pyridin-2-yl)-1H-pyrazolo[4,3-b]pyridin-5-yl)pyridin-3-yl)-2-phenylacetamide] | > 10000 | 12.3 | 23.4
> 10000 | COc1cccc(-c2ccnc3[nH]c(-c4n[nH]c5ccc(-c6cccnc6)nc45)nc23)c1 [Compound 994, 3-(7-(3-methoxyphenyl)-3H-imidazo[4,5-b]pyridin-2-yl)-5-(pyridin-3-yl)-1H-pyrazolo[4,3-b]pyridine] | 590 | 50.2 | –
1800 | CC(C)Nc1cncc(-c2ccc3[nH]nc(-c4nc5c(-c6cc(F)cc(NCCN(C)C)c6)ccnc5[nH]4)c3n2)c1 [Compound 460, N^1-(3-fluoro-5-(2-(5-(5-(isopropylamino)pyridin-3-yl)-1H-pyrazolo[4,3-b]pyridin-3-yl)-3H-imidazo[4,5-b]pyridin-7-yl)phenyl)-N^2,N^2-dimethylethane-1,2-diamine] | 2450 | – | –
